Residual activity data for three compounds are collected here from the kinase profiling compilation of Christmann-Franck et al. (2016).

Chain of MST4 (human) (Q9P289 whole entry, looked up): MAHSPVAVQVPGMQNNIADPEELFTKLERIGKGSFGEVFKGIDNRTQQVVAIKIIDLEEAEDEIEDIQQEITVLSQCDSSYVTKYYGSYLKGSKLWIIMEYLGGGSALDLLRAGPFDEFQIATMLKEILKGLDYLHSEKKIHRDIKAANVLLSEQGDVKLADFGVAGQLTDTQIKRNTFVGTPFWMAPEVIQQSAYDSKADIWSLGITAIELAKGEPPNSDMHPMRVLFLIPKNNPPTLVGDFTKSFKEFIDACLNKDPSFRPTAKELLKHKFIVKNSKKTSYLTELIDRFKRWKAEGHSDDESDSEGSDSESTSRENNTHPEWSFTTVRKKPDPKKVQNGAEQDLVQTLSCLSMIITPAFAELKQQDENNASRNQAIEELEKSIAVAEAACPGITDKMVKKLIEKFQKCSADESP
Chain of RAF1 (human) (P04049 whole entry, looked up): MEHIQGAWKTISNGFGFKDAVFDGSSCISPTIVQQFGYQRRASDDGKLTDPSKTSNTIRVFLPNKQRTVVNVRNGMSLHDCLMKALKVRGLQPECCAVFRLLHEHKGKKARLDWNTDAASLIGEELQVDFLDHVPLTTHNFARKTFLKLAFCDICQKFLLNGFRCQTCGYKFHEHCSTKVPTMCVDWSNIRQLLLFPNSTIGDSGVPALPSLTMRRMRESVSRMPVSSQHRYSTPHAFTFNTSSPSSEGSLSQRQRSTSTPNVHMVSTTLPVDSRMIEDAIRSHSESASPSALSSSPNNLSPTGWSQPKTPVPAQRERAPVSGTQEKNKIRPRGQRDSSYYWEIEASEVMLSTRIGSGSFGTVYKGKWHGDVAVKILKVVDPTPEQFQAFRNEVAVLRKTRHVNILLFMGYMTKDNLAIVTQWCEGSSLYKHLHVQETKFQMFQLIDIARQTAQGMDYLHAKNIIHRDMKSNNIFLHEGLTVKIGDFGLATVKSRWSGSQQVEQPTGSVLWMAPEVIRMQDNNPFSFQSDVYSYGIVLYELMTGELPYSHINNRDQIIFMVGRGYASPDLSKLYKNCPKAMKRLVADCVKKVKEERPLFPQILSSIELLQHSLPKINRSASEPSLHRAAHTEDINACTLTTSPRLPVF
Chain of LTK (human) (P29376 whole entry, looked up): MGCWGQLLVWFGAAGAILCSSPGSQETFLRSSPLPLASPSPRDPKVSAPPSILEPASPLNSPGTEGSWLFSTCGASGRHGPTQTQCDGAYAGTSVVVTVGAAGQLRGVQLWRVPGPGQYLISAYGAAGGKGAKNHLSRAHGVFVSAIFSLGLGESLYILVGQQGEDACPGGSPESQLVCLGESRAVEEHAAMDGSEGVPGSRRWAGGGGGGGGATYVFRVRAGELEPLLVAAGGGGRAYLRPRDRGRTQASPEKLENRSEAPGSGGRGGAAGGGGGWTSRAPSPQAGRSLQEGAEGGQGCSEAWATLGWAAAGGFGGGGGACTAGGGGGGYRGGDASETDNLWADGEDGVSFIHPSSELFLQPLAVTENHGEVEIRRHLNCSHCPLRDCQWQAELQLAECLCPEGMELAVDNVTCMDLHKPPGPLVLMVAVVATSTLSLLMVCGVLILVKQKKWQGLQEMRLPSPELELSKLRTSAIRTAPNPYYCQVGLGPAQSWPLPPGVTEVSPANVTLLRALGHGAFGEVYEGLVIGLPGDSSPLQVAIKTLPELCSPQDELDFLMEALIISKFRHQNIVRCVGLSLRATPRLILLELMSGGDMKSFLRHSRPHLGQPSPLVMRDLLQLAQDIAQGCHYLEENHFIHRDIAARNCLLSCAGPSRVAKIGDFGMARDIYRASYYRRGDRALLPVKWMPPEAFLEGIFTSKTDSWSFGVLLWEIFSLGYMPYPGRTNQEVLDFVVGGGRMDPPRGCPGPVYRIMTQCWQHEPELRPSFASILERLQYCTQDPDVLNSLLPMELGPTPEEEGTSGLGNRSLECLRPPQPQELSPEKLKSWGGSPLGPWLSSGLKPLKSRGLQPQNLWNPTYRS

The first experiment has as its target LRRK2 (human) (UniProt Q5S007). The experiment is described as follows: radiometric filter-binding kinase assay, Kinase HotSpot. The conditions noted are these: compound 0.5 µM; ATP 10 µM.
On to `CC#CC(=O)Nc1cc2c(Nc3ccc(F)c(Cl)c3)ncnc2cn1`, for which the residual activity is 92.3%.
On the same count and under the same terms, the result for `Nc1ncnc2c1c(-c1ccc(Oc3ccccc3)cc1)cn2C1CCCC1` reads 86.2%.
The same measure, in the same setting: the result for `CC(=O)c1ccc(N2CCOCC2)cc1O` reads 96.1%.

The next experiment has as its target LTK (human) (UniProt P29376). The experiment is described as above. The conditions noted are these: compound 0.5 µM; ATP 10 µM.
On to `CC#CC(=O)Nc1cc2c(Nc3ccc(F)c(Cl)c3)ncnc2cn1`, for which the residual activity was 93%.
Same read-out and setting: under `Nc1ncnc2c1c(-c1ccc(Oc3ccccc3)cc1)cn2C1CCCC1` stands 86.3%.
On to `CC(=O)c1ccc(N2CCOCC2)cc1O`, for which the residual activity stood at 102%.

A further experiment deals with MAP3K5 (human) (UniProt Q99683). The description is as above. To be noted: compound 0.5 µM; ATP 10 µM.
Turning to `CC#CC(=O)Nc1cc2c(Nc3ccc(F)c(Cl)c3)ncnc2cn1`, the residual activity was found to be 98.9%.
On the same count and under the same terms, under `Nc1ncnc2c1c(-c1ccc(Oc3ccccc3)cc1)cn2C1CCCC1` stands 99.1%.
Still for that read-out and setting: the result for `CC(=O)c1ccc(N2CCOCC2)cc1O` reads 99.4%.

The target of a further experiment is MAP3K9 (human) (UniProt P80192). Described as above. The conditions noted are these: compound 0.5 µM; ATP 10 µM.
For `CC#CC(=O)Nc1cc2c(Nc3ccc(F)c(Cl)c3)ncnc2cn1`, the residual activity was 95.8%.
For `Nc1ncnc2c1c(-c1ccc(Oc3ccccc3)cc1)cn2C1CCCC1`, the residual activity was determined as 103%.
Still for that read-out and setting: under `CC(=O)c1ccc(N2CCOCC2)cc1O` stands 112%.

A further experiment deals with MAP4K4 (human) (UniProt O95819). The description is as above. The conditions noted are these: compound 0.5 µM; ATP 10 µM.
`CC#CC(=O)Nc1cc2c(Nc3ccc(F)c(Cl)c3)ncnc2cn1`: the residual activity is 110%.
Same read-out and setting: the result for `Nc1ncnc2c1c(-c1ccc(Oc3ccccc3)cc1)cn2C1CCCC1` reads 98.8%; that for `CC(=O)c1ccc(N2CCOCC2)cc1O`, 96.9%.

In another experiment the target is MAPK8 (human) (UniProt P45983). The description is as above. The conditions noted are these: compound 0.5 µM; ATP 10 µM.
Consider `CC#CC(=O)Nc1cc2c(Nc3ccc(F)c(Cl)c3)ncnc2cn1`, for which the residual activity is 98.9%.
Same read-out and setting: the result for `Nc1ncnc2c1c(-c1ccc(Oc3ccccc3)cc1)cn2C1CCCC1` reads 117%; that for `CC(=O)c1ccc(N2CCOCC2)cc1O`, 96.8%.

Another experiment addresses MST4 (human) (UniProt Q9P289). The description is as above. The conditions noted are these: compound 0.5 µM; ATP 10 µM.
Take `CC#CC(=O)Nc1cc2c(Nc3ccc(F)c(Cl)c3)ncnc2cn1`: the residual activity was 103%.
On the same count and under the same terms, the result for `Nc1ncnc2c1c(-c1ccc(Oc3ccccc3)cc1)cn2C1CCCC1` reads 95.2%.
The same measure, in the same setting: under `CC(=O)c1ccc(N2CCOCC2)cc1O` stands 99.5%.

In a further experiment the target is NEK3 (human) (UniProt P51956). The experiment is described as above. To be noted: compound 0.5 µM; ATP 10 µM.
Chain of NEK3 (human) (P51956 whole entry, looked up): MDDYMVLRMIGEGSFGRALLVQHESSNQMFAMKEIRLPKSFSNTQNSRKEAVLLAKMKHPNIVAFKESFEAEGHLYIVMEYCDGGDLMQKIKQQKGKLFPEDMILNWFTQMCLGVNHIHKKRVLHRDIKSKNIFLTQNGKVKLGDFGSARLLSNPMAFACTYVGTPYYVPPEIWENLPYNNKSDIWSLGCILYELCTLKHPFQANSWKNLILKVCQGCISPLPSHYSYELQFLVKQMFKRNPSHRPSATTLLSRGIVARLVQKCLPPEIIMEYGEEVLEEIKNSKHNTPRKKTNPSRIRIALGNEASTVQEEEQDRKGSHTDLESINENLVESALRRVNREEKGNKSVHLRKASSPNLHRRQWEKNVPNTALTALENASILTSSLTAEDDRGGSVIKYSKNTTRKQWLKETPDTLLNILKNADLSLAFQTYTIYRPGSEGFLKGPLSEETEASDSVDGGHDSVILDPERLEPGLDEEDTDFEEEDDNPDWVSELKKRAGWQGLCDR
On to `CC#CC(=O)Nc1cc2c(Nc3ccc(F)c(Cl)c3)ncnc2cn1`, for which the residual activity is 76.2%.
On the same count and under the same terms, under `Nc1ncnc2c1c(-c1ccc(Oc3ccccc3)cc1)cn2C1CCCC1` stands 98.4%; under `CC(=O)c1ccc(N2CCOCC2)cc1O`, 103%.

The target of a further experiment is NEK4 (human) (UniProt P51957). The description is as above. To be noted: compound 0.5 µM; ATP 10 µM.
As for `CC#CC(=O)Nc1cc2c(Nc3ccc(F)c(Cl)c3)ncnc2cn1`, the residual activity came to 85.8%.
With `Nc1ncnc2c1c(-c1ccc(Oc3ccccc3)cc1)cn2C1CCCC1`, the residual activity came to 92.1%.
Take `CC(=O)c1ccc(N2CCOCC2)cc1O`: the residual activity was 103%.

In a further experiment the target is PAK6 (human) (UniProt Q9NQU5). The experiment is described as above. To be noted: compound 0.5 µM; ATP 10 µM.
Regarding `CC#CC(=O)Nc1cc2c(Nc3ccc(F)c(Cl)c3)ncnc2cn1`, the residual activity stood at 96.9%.
Take `Nc1ncnc2c1c(-c1ccc(Oc3ccccc3)cc1)cn2C1CCCC1`: the residual activity was found to be 88.2%.
As for `CC(=O)c1ccc(N2CCOCC2)cc1O`, the residual activity is 93.7%.

The target of another experiment is PIM2 (human) (UniProt Q9P1W9). The description is as above. To be noted: compound 0.5 µM; ATP 10 µM.
Chain of PIM2 (human) (Q9P1W9 whole entry, looked up): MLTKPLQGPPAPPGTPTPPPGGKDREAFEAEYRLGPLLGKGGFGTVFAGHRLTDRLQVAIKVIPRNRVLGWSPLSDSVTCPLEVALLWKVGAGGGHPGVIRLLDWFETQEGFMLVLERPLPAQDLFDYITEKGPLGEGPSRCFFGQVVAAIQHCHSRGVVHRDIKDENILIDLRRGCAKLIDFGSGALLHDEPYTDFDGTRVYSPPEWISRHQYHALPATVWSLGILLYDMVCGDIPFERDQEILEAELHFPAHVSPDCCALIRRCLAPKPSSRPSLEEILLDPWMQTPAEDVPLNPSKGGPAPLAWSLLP
Regarding `CC#CC(=O)Nc1cc2c(Nc3ccc(F)c(Cl)c3)ncnc2cn1`, the residual activity turned out to be 111%.
Still for that read-out and setting: the result for `Nc1ncnc2c1c(-c1ccc(Oc3ccccc3)cc1)cn2C1CCCC1` reads 110%; that for `CC(=O)c1ccc(N2CCOCC2)cc1O`, 117%.

For another experiment, the target named is PLK2 (human) (UniProt Q9NYY3). The experiment is described as above. To be noted: compound 0.5 µM; ATP 10 µM.
On to `CC#CC(=O)Nc1cc2c(Nc3ccc(F)c(Cl)c3)ncnc2cn1`, for which the residual activity was found to be 103%.
Same read-out and setting: the result for `Nc1ncnc2c1c(-c1ccc(Oc3ccccc3)cc1)cn2C1CCCC1` reads 92.5%; that for `CC(=O)c1ccc(N2CCOCC2)cc1O`, 104%.

The target in a further experiment is PRKCI (human) (UniProt P41743). Described as above. The conditions noted are these: compound 0.5 µM; ATP 10 µM.
Chain of PRKCI (human) (P41743 whole entry, looked up): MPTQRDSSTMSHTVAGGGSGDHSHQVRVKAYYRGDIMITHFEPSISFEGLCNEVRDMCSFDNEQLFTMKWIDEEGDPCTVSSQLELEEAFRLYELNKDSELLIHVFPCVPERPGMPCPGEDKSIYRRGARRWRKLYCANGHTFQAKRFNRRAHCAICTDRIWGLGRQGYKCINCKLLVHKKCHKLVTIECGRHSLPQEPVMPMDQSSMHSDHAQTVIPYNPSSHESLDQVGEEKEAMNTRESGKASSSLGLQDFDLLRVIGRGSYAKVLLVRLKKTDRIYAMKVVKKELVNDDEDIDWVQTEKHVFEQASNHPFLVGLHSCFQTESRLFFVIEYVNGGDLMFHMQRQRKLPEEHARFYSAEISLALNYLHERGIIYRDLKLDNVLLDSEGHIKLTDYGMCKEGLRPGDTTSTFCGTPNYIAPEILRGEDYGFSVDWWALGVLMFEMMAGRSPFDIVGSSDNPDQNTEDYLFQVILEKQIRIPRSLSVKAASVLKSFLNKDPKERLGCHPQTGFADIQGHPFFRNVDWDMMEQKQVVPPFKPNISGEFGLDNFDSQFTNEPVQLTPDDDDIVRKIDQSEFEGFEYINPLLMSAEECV
For the compound `CC#CC(=O)Nc1cc2c(Nc3ccc(F)c(Cl)c3)ncnc2cn1`, the residual activity amounted to 96.6%.
Still for that read-out and setting: the result for `Nc1ncnc2c1c(-c1ccc(Oc3ccccc3)cc1)cn2C1CCCC1` reads 103%; that for `CC(=O)c1ccc(N2CCOCC2)cc1O`, 96.3%.

The next experiment addresses RAF1 (human) (UniProt P04049). The experiment is described as above. The conditions noted are these: compound 0.5 µM; ATP 10 µM.
Consider `CC#CC(=O)Nc1cc2c(Nc3ccc(F)c(Cl)c3)ncnc2cn1`, for which the residual activity came to 85.6%.
Turning to `Nc1ncnc2c1c(-c1ccc(Oc3ccccc3)cc1)cn2C1CCCC1`, the residual activity amounted to 71.3%.
On the same count and under the same terms, under `CC(=O)c1ccc(N2CCOCC2)cc1O` stands 96.2%.

The target of the next experiment is RIPK2 (human) (UniProt O43353). Described as above. The conditions noted are these: compound 0.5 µM; ATP 10 µM.
Chain of RIPK2 (human) (O43353 whole entry, looked up): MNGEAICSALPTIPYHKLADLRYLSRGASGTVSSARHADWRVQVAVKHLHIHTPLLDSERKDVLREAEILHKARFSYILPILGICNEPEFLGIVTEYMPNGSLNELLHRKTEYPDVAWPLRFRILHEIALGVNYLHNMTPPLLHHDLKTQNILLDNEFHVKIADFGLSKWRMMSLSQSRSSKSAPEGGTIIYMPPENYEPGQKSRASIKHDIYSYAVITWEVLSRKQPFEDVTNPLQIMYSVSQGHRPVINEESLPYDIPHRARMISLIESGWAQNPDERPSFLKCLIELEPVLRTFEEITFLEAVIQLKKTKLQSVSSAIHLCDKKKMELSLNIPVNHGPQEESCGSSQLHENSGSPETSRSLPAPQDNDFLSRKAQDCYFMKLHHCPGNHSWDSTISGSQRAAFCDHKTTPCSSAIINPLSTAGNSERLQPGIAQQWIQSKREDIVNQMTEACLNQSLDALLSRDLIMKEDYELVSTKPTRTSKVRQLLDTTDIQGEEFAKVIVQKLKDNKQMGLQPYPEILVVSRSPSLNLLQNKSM
In the case of `CC#CC(=O)Nc1cc2c(Nc3ccc(F)c(Cl)c3)ncnc2cn1`, the residual activity came out at 38.7%.
The same measure, in the same setting: under `Nc1ncnc2c1c(-c1ccc(Oc3ccccc3)cc1)cn2C1CCCC1` stands 28.6%.
On the same count and under the same terms, under `CC(=O)c1ccc(N2CCOCC2)cc1O` stands 103%.

The next experiment concerns the target ROS1 (human) (UniProt P08922). The experiment is described as above. The conditions noted are these: compound 0.5 µM; ATP 10 µM.
As to `CC#CC(=O)Nc1cc2c(Nc3ccc(F)c(Cl)c3)ncnc2cn1`, the residual activity stood at 91.3%.
Still for that read-out and setting: the result for `Nc1ncnc2c1c(-c1ccc(Oc3ccccc3)cc1)cn2C1CCCC1` reads 101%.
`CC(=O)c1ccc(N2CCOCC2)cc1O`: the residual activity worked out at 102%.

Another experiment concerns the target RPS6KB1 (human) (UniProt P23443). The description is as above. The conditions noted are these: compound 0.5 µM; ATP 10 µM.
For the compound `CC#CC(=O)Nc1cc2c(Nc3ccc(F)c(Cl)c3)ncnc2cn1`, the residual activity worked out at 97.1%.
The same measure, in the same setting: the result for `Nc1ncnc2c1c(-c1ccc(Oc3ccccc3)cc1)cn2C1CCCC1` reads 104%.
Same read-out and setting: the result for `CC(=O)c1ccc(N2CCOCC2)cc1O` reads 95.2%.

The target in another experiment is SRPK1 (human) (UniProt Q96SB4). Described as above. The conditions noted are these: compound 0.5 µM; ATP 10 µM.
Chain of SRPK1 (human) (Q96SB4 whole entry, looked up): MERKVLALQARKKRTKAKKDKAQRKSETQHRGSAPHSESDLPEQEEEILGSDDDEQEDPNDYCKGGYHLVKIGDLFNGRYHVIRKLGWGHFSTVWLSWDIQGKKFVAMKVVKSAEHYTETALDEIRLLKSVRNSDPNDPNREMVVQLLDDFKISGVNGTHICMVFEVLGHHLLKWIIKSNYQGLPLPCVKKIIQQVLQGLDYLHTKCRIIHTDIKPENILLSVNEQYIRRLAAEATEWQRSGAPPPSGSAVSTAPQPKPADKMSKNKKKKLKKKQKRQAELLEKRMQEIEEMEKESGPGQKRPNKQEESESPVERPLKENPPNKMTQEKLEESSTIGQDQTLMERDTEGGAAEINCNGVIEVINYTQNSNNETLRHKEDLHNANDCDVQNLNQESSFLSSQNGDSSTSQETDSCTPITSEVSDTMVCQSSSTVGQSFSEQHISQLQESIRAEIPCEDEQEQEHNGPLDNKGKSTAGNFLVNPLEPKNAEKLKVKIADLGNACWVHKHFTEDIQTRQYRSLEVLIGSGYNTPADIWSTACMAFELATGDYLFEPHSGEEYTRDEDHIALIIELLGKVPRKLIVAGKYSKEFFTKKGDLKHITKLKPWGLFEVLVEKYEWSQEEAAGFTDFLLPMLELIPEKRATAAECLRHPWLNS
In the case of `CC#CC(=O)Nc1cc2c(Nc3ccc(F)c(Cl)c3)ncnc2cn1`, the residual activity was 94.8%.
With `Nc1ncnc2c1c(-c1ccc(Oc3ccccc3)cc1)cn2C1CCCC1`, the residual activity amounted to 105%.
In the case of `CC(=O)c1ccc(N2CCOCC2)cc1O`, the residual activity was 90.7%.

Another experiment addresses STK10 (human) (UniProt O94804). Described as above. The conditions noted are these: compound 0.5 µM; ATP 10 µM.
For `CC#CC(=O)Nc1cc2c(Nc3ccc(F)c(Cl)c3)ncnc2cn1`, the residual activity came to 72.6%.
Still for that read-out and setting: the result for `Nc1ncnc2c1c(-c1ccc(Oc3ccccc3)cc1)cn2C1CCCC1` reads 73.1%; that for `CC(=O)c1ccc(N2CCOCC2)cc1O`, 101%.

Another experiment addresses TAOK3 (human) (UniProt Q9H2K8). Described as above. The conditions noted are these: compound 0.5 µM; ATP 10 µM.
As for `CC#CC(=O)Nc1cc2c(Nc3ccc(F)c(Cl)c3)ncnc2cn1`, the residual activity was 110%.
On the same count and under the same terms, under `Nc1ncnc2c1c(-c1ccc(Oc3ccccc3)cc1)cn2C1CCCC1` stands 92.9%; under `CC(=O)c1ccc(N2CCOCC2)cc1O`, 98.4%.

For the next experiment, the target named is TSSK1B (human) (UniProt Q9BXA7). The description is as above. The conditions noted are these: compound 0.5 µM; ATP 10 µM.
Chain of TSSK1B (human) (Q9BXA7 whole entry, looked up): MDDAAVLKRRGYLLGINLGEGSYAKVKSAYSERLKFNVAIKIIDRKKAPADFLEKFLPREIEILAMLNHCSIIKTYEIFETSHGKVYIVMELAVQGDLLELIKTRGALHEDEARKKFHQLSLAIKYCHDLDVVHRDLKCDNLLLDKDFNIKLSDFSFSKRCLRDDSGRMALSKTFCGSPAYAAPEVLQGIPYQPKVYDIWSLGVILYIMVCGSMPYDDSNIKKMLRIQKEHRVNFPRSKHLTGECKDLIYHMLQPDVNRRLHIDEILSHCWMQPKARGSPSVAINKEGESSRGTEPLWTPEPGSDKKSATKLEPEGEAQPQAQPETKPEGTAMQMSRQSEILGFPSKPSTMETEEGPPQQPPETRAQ
Consider `CC#CC(=O)Nc1cc2c(Nc3ccc(F)c(Cl)c3)ncnc2cn1`, for which the residual activity turned out to be 104%.
On the same count and under the same terms, under `Nc1ncnc2c1c(-c1ccc(Oc3ccccc3)cc1)cn2C1CCCC1` stands 114%; under `CC(=O)c1ccc(N2CCOCC2)cc1O`, 107%.

As usually defined, the residual activity is the signal under treatment as a percentage of the control signal.
